This note sets out measurements from US20240090503A1, “FUNGICIDAL OXADIAZOLES AND THEIR MIXTURES” (FMC CORPORATION, priority 2020, published 2024).

For data set [1], the system named is Phakopsora pachyrhizi (the causal agent of Asian soybean rust). The experiment in a line: Test A: preventive spray on soybean seedlings, Asian soybean rust, visual disease rating. The class given is in vivo. The following applies: Phakopsora pachyrhizi, 216 h, soybean seedlings, 100 = 100% disease control, 0 = no control; for pest or weed control at 10 µg/mL: test suspension 10 ppm, read-out: Test A disease control rating; for pest or weed control at 10 ppm: 10 ppm test suspension. The procedure, abridged: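 Preventive test: soybean seedlings received a run-off spray of compound suspended at the set ppm in 50/50 acetone/water plus 250 ppm PEG400, and one day later a P. pachyrhizi spore inoculum. Visual scoring (0 none to 100 full disease control) followed 24 h saturated incubation and 8 days' growth chamber, both at 22° C.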

In data set [2] the test system is Zymoseptoria tritici (the causal agent of wheat leaf blotch). The experiment in a line: Test B: preventive spray on wheat seedlings, wheat leaf blotch, visual disease rating. The class given is in vivo. The following applies: Zymoseptoria tritici, 456 h, wheat seedlings; for pest or weed control at 250 µg/mL: test suspension 250 ppm; for pest or weed control at 250 ppm: 250 ppm test suspension, 100 = 100% disease control. Summed up: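 This is a preventive test: spray application preceded Zymoseptoria tritici spore inoculation by one day. Test suspensions were in acetone/water with 250 ppm PEG400 surfactant, at the listed ppm rate. After 48 h saturated humidity at 24° C and 17 days at 20° C, visual ratings scored control from 0 to 100%.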

Data set [3] has as its system Puccinia recondita f. sp. tritici (the causal agent of wheat leaf rust). The experiment in a line: Test C: preventive spray on wheat seedlings, wheat leaf rust, visual disease rating. Type of data set: in vivo. The following applies: Puccinia recondita, 168 h, wheat seedlings; for pest or weed control at 10 µg/mL: test suspension 10 ppm, read-out: Test C disease control rating; for pest or weed control at 10 ppm: 10 ppm test suspension. The procedure, abridged: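 Wheat seedlings sprayed to run-off with compound in acetone/water (50/50) with 250 ppm PEG400, then inoculated with spores the following day. After 24 h saturated humidity at 20° C. and 6 days in growth chamber at 20° C., disease rated visually as % control relative to untreated controls.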

For data set [4], the system named is Phakopsora pachyrhizi (the causal agent of Asian soybean rust). The experiment in a line: Test E: compounds alone and mixtures sprayed on soybean seedlings, Asian soybean rust, observed and Colby-expected disease control. Type of data set: in vivo. Conditions: Phakopsora pachyrhizi. From the text: The general protocol for preparing test compositions for TEST E was as follows: Compound 316, Compound 376, Compound 225, Compound 229, Compound 257, Compound 394, Compound 506, Compound 507, Compound 508, Compound 509, Compound 511, Compound 512, methyl N-[[5-[1-[2,6-difluoro-4-(1-methylethyl)phenyl]-1H-pyrazol-3-yl]-2-methylphenyl]methyl]carbamate (b54.11a), methyl N-[[5-[l-(4-cyclopropyl-2,6-difluorophenyl)-1H-pyrazol-3-yl]-2-methylphenyl]methyl]carbamate (b54.11d), ethyl 1-[[4-[[(1Z)-2-ethoxy-3,3,3-trifluoro-1-propen-1-yl]oxy]phenyl]methyl]-1H-pyrazole-4-carboxylate (b54.12a), ethyl 1-[[4-[[2-(trifluoromethyl)-1,3-dioxolan-2-yl]methoxy]phenyl]methyl]-1H-pyrazole-4-carboxylate (b54.13a), azoxystrobin, benzovindiflupyr, bixafen, chlorothalonil, cyproconazole, epoxiconazole, fenpropidin, fenpropimorph, fluindapyr, flutriafol, fluxapyroxad, inpyrfluxam, metominostrobin, picoxystrobin, prothioconazole, pydiflumetofen, pyraclostrobin, tebuconazole and trifloxystrobin were obtained as unformulated, technical-grade materials. Copper hydroxide and mancozeb was obtained as a formulated product marketed under the trademarks KOCIDE 3000 and MANZATE, respectively. Unformulated materials were first dissolved in acetone and then suspended at the desired concentration (in ppm) in acetone and purified water (50/50 mixture by volume) containing 250 ppm of the surfactant Trem® 014 (polyhydric alcohol esters). Formulated materials were dispersed in sufficient water to give the desired concentration, and neither organic solvent nor surfactant was added to the suspension. The resulting test mixtures were then used in TEST E. The tests were run on four individual plants and the results reported as the mean average of the four plants.
The presence of a synergistic effect between two active ingredients can be established with the aid of the Colby equation (see Colby, S. R. “Calculating Synergistic and Antagonistic Responses of Herbicide Combinations”, Weeds, (1967), 15, 20-22):
Using the method of Colby, the presence of a synergistic interaction between two active ingredients is established by first calculating the predicted activity, p, of the mixture based on activities of the two components applied alone. If p is lower than the experimentally established effect, synergism has occurred. In the equation above, A is the fungicidal activity in percentage control of one component applied alone at rate x. The B term is the fungicidal activity in percentage control of the second component applied at rate y. The equation estimates p, the expected fungicidal activity of the mixture of A at rate x with B at rate y if their effects are strictly additive and no interaction has occurred.
The test mixture was sprayed to the point of run-off on soybean seedlings. The following day the seedlings were inoculated with a spore suspension of Phakopsora pachyrhizi (the causal agent of Asian soybean rust) and incubated in a saturated atmosphere at 22° C. for 24 h and then moved to a growth chamber at 22° C. for 8 days, after which time visual disease ratings were made.
Results for Test E are given below in Tables A-1 through K-2. Each table corresponds to a set of evaluations performed together at the same time. In each table, a rating of 100 indicates 100% disease control and a rating of 0 indicates no disease control (relative to the controls). Columns labeled “Obsd” indicate the average of results observed from test run on four individual plants. Columns labeled “Exp” indicate the expected value for each treatment mixture using the Colby equation, as described above.

Setting [5] is: 100 = 100% disease control, 0 = no control.
Where [6] appears, read: Compound 509 alone, read-out: Test E Obsd.
Where [7] appears, read: applied alone, read-out: Test E Obsd.

Read-outs that look alike come from different tables or passages of the source.

The molecule `O=C(NCCn1cccn1)c1coc(Cc2ccc(-c3noc(C(F)(F)F)n3)cc2)n1` [Compound 264, N-[2-(1H-pyrazol-1-yl)ethyl]-2-[[4-[5-(trifluoromethyl)-1,2,4-oxadiazol-3-yl]phenyl]methyl]-4-oxazolecarboxamide] registered a melting point of 125 to 126 °C. Moreover, the pest or weed control at 10 µg/mL in data set [1] was 100%. For the same molecule, in data set [2], the pest or weed control at 250 µg/mL was determined as 99%. In addition, the pest or weed control at 10 µg/mL in data set [3] worked out at 99%.

`O=C(NCCC(F)(F)F)c1coc(Cc2ccc(-c3noc(C(F)(F)F)n3)cc2)n1` [Compound 330, 2-[[4-[5-(trifluoromethyl)-1,2,4-oxadiazol-3-yl]phenyl]methyl]-N-(3,3,3-trifluoropropyl)-4-oxazolecarboxamide] yielded a melting point of 104 to 105 °C. Moreover, the pest or weed control at 10 µg/mL in data set [1] turned out to be 100%. The pest or weed control at 250 µg/mL in data set [2] came out at 96%. In data set [3], the pest or weed control at 10 µg/mL worked out at 100%.

With `CCOC(=O)c1cnn(COc2ccc(-c3noc(C(F)(F)F)n3)cc2)c1` [Compound 376, ethyl 1-[[4-[5-(trifluoromethyl)-1,2,4-oxadiazol-3-yl]phenoxy]methyl]-1H-pyrazole-4-carboxylate], the pest or weed control at 10 µg/mL was 100% in data set [1] and 68% in data set [3]. Also, the pest or weed control at 250 µg/mL in data set [2] came to 49%. For the same molecule, the pest or weed control at 0.753 ppm in data set [4] (Compound 376 alone, 0.753 ppm, read-out: Test E Obsd) amounted to 53%; in data set [4] (Table A-2, Compound 376 0.753 ppm alone, read-out: Test E Obsd (disease control rating)) it was 70%; in data set [4] (Table B-2, Compound 376 0.753 ppm alone, read-out: Test E Obsd (disease control rating)) it was 15%; in data set [4] (Table C-2, Compound 376 0.753 ppm alone, read-out: Test E Obsd (disease control rating)) it was 54%; in data set [4] (Table D-2, Compound 376 0.753 ppm alone, read-out: Test E Obsd (disease control rating)), 67%; in data set [4] (Table E-2, Compound 376 0.753 ppm alone, read-out: Test E Obsd (disease control rating)) it was 81%. Further, the pest or weed control at 0.753 ppm in data set [4] (Table F-2, Compound 376 0.753 ppm alone, read-out: Test E Obsd (disease control rating)) is 68%; in data set [4] (Table G-2, Compound 376 0.753 ppm alone, read-out: Test E Obsd (disease control rating)), 52%; in data set [4] (Table H-2, Compound 376 0.753 ppm alone, read-out: Test E Obsd (disease control rating)) it was 62%. For the same molecule, the pest or weed control at 1.228 ppm was determined as 78% in data set [4] (Compound 376 alone, 1.228 ppm, read-out: Test E Obsd); 66% in data set [4] (Table A-2, Compound 376 1.228 ppm alone, read-out: Test E Obsd (disease control rating)); 21% in data set [4] (Table B-2, Compound 376 1.228 ppm alone, read-out: Test E Obsd (disease control rating)); 71% in data set [4] (Table C-2, Compound 376 1.228 ppm alone, read-out: Test E Obsd (disease control rating)); 68% in data set [4] (Table D-2, Compound 376 1.228 ppm alone, read-out: Test E Obsd (disease control rating)); 67% in data set [4] (Table E-2, Compound 376 1.228 ppm alone, read-out: Test E Obsd (disease control rating)). Moreover, the pest or weed control at 1.228 ppm in data set [4] (Table F-2, Compound 376 1.228 ppm alone, read-out: Test E Obsd (disease control rating)) worked out at 77%; in data set [4] (Table G-2, Compound 376 1.228 ppm alone, read-out: Test E Obsd (disease control rating)), 37%; in data set [4] (Table H-2, Compound 376 1.228 ppm alone, read-out: Test E Obsd (disease control rating)), 81%.

Regarding `O=C(NCC(F)F)c1csc(Cc2ccc(-c3noc(C(F)(F)F)n3)cc2)n1` [Compound 505, N-(2,2-difluoroethyl)-2-[[4-[5-(trifluoromethyl)-1,2,4-oxadiazol-3-yl]phenyl]methyl]-4-thiazolecarboxamide], the melting point is 83 to 92 °C. In addition, in data set [1], the pest or weed control at 10 ppm is 100%. Moreover, the pest or weed control at 250 ppm in data set [2] was determined as 100%. The pest or weed control at 10 ppm in data set [3] (setting [5]) worked out at 100%.

`O=C(NCC(F)(F)F)c1noc(Cc2ccc(-c3noc(C(F)(F)F)n3)cc2)n1` [Compound 506, N-(2,2,2-trifluoroethyl)-5-[[4-[5-(trifluoromethyl)-1,2,4-oxadiazol-3-yl]phenyl]methyl]-1,2,4-oxadiazole-3-carboxamide] came in with a melting point of 116 to 120 °C. In addition, in data set [1] (250 ppm test suspension), the pest or weed control at 250 ppm is 100%. In addition, the pest or weed control at 250 ppm in data set [2] is 49%. The pest or weed control at 250 ppm in data set [3] (250 ppm test suspension, 100 = 100% disease control, 0 = no control) is 100%.

For `N#CCn1ccc(Cc2ccc(-c3noc(C(F)(F)F)n3)cc2)n1` [Compound 507, 3-[4-[(1-cyanomethyl-1H-pyrazol-3-yl)methyl]phenyl]-5-(trifluoromethyl)-1,2,4-oxadiazole], the melting point is 111 to 114 °C. Moreover, in data set [1], the pest or weed control at 10 ppm amounted to 100%. The pest or weed control at 1.823 ppm in data set [4] (applied alone, 1.823 ppm, read-out: Test E Obsd) is 74%. In addition, in data set [3] (setting [5]), the pest or weed control at 10 ppm amounted to 98%.

On to `Cn1nc(C(=O)NCC(F)(F)F)cc1Cc1ccc(-c2noc(C(F)(F)F)n2)cc1` [Compound 509, 1-methyl-N-(2,2,2-trifluoroethyl)-5-[[4-[5-(trifluoromethyl)-1,2,4-oxadiazol-3-yl]phenyl]methyl]-1H-pyrazole-3-carboxamide], for which the melting point fell in the range of 142 to 142.9 °C. The pest or weed control at 50 ppm in data set [1] (50 ppm test suspension) is 100%. Further, in data set [4] (setting [6]), the pest or weed control at 2.796 ppm turned out to be 36% and the pest or weed control at 5.625 ppm amounted to 47%. Besides, in data set [4] (setting [7]), the pest or weed control at 2.796 ppm stood at 54% and the pest or weed control at 5.625 ppm was 35%. In addition, in data set [3] (50 ppm test suspension, 100 = 100% disease control, 0 = no control), the pest or weed control at 50 ppm amounted to 99%.

`N#CCc1cc(Cc2ccc(-c3noc(C(F)(F)F)n3)cc2)on1` [Compound 510, 5-[[4-[5-(trifluoromethyl)-1,2,4-oxadiazol-3-yl]phenyl]methyl]-3-isoxazoleacetonitrile] displayed a melting point of 101 to 104 °C. Further, the pest or weed control at 10 ppm in data set [1] was determined as 100%. In addition, the pest or weed control at 10 ppm in data set [3] (setting [5]) worked out at 84%.

By melting point is commonly meant the temperature of the solid-liquid transition.
